Assay [1] relates to BDL mice. As to the kind of experiment: Motor function in chronic liver failure induced by bile duct ligation (BDL). In kind it is in vivo. The settings on record: BDL mice relative to sham; cannabidiol 5 mg/kg i.p. daily, evaluated 2 weeks post-surgery.
Assay [2] deals with BDL mice. As to the kind of experiment: Cognitive function in chronic liver failure induced by bile duct ligation (BDL). In kind it is in vivo. The settings on record: BDL mice relative to sham; cannabidiol 5 mg/kg i.p. daily, evaluated 2 weeks post-surgery.
The test system of assay [3] is TAA treated mice. The settings on record: mouse, in vivo.
Assay [4] relates to TAA treated mice. As to the kind of experiment: Liver function analysis of blood plasma in TAA treated mice. In kind it is in vivo.
Another assay concerns TAA treated CB2-KO mice. As to the kind of experiment: Blood ALT and AST levels in TAA treated CB2-KO mice. It counts as in vivo. As for the experimental part:
(ii) Mice. Eight- to 10-week old female Sabra mice (29-32 g), obtained from the animal facility of the Hebrew University, Israel, were assigned at random to different groups of 10 mice per cage and were used in all experiments. All cages contained wood-chip bedding and were placed in a temperature-controlled room at 22° C., on a 12 h light/dark cycle (lights on at 07.00 a.m.). The mice had free access to water 24 h a day. The food provided was Purina chow, the animals were maintained in the animal facility (SPF unit) of the Hebrew University Hadassah Medical School, Jerusalem. CB-2 KO mice were provided by Prof. Zimmer, Institute of Molecular Psychiatry, University of Bonn, Germany.
(xi) Liver function analysis. Ammonia, bilirubin, ALT, AST, GGT and glucose were analyzed using standard analytical methods in the Hadassah Hospital Biochemistry Department, Jerusalem, Israel.

The test system of another assay is dopamine. Kind of assay: Brain catecholamine (dopamine) measurement by HPLC-ECD in TAA treated mice. It counts as in vivo. On the procedure: (vi) Catecholamine measurements. Catecholamines were measured as described previously (Avraham et al, 1996). The assay for dopamine was performed by High Pressure Liquid Chromatography (HPLC) separation and detection using HPLC-electrochemical detection (ECD). Values are presented as concentration (ng/g tissue).

Assay [5] deals with AMPK. As to the kind of experiment: Hippocampal AMPK phosphorylation (immunoblot) in TAA-induced liver failure mice. It counts as in vivo. (In general: A western blot detects proteins with antibodies after separation by electrophoresis.)
The subject of the next assay is glial cells. Also on record: species or system mice. Particulars: mouse, in vivo.
Assay [6] relates to TAA treated mice. As to the kind of experiment: Neurological score in TAA treated mice. In kind it is in vivo.
The subject of assay [7] is TAA treated mice. Kind of assay: Eight-arm maze (cognitive function) in TAA treated mice. It counts as in vivo.
The test system of assay [8] is CB1 and the CB2 receptors. Particulars: previously known; cited from earlier work.
Assay [9] relates to AMPK. Kind of assay: Hippocampal AMPK phosphorylation (immunoblot) in control mice. In kind it is in vivo. The settings on record: for hippocampal AMPK phosphorylation (activated AMPK): control mice.
The test system of assay [10] is TAA treated mice. Kind of assay: Activity test in TAA treated mice. It counts as in vivo.
The test system of the next assay is malondialdehyde. As to the kind of experiment: Oxidative stress (malondialdehyde) in liver tissue of BDL mice. It counts as in vivo. Particulars: cannabidiol 5 mg/kg i.p. daily.
Another assay concerns IL-1β mRNA. As to the kind of experiment: Hippocampal IL-1β mRNA level by RT-PCR in BDL mice. In kind it is in vivo. The settings on record: cannabidiol 5 mg/kg i.p. daily for 3 weeks.

“Also recorded” adds a separate entry of the source.

For `CCCCC/C=C\C/C=C\C/C=C\C/C=C\CCCC(=O)OC(CO)CO` [2-AG, 2-arachidonoylglycerol], the “motor impairment (motor activity)” value in the assay on BDL mice [1] was “failed to reverse”. Also, the “cognitive impairment (eight arm maze AUC)” value in the assay with BDL mice [2] is on record as “effectively reversed”. Further, in the assay on TAA treated mice [3], the “Inflammation (frequency of cells in the liver)” value (from here on “Inflammation”) is “Decreased” and the “Regeneration (frequency of cells in the liver)” value (shortened to “Regeneration”) is “Increased”. Also, in the assay on TAA treated mice [4] (mouse, in vivo), the “alanine transaminase (ALT) level” value is reported as “significantly reduced”; the “aspartate aminotransferase (AST) level” value is listed as “significantly reduced”; the “influence of the co-administered agent on the other agent's reduction of ALT and AST levels” value was “did not counteract the effect of SR141716A or SR144528”. Moreover, in the assay on TAA treated CB2-KO mice, the ALT level result is given as “modestly but significantly reduced” and the AST level entry is recorded as “effective in reducing its level”.

`NC(=O)c1ncn([C@@H]2O[C@H](CO)[C@@H](O)[C@H]2O)c1N` [AICAR, 5-aminoimidazole-4-carboxamide ribonucleoside]: in the assay with dopamine, the brain dopamine concentration entry is “restored levels to normal”. For the same molecule, the AMPK activation result in the assay with AMPK [5] (TAA treated mice, AICAR treatment) is listed as “augmented AMPK activation”. For the same molecule, in the assay on TAA treated mice [4] (TAA treated mice, blood), the “alanine transaminase (ALT) level” value is “Neither AICAR nor THC ameliorated these markers” and the “aspartate aminotransferase (AST) level” value is “Neither AICAR nor THC ameliorated these markers”. In the assay on TAA treated mice [4] (TAA treated mice, blood plasma), the ammonia level result was “no effect”, the bilirubin level result was “Neither AICAR nor THC ameliorated these markers” and the “gamma-glutamyltransferase (GGT) level” value was “Neither AICAR nor THC ameliorated these markers”.

On to `CCCCCCC(C)(C)c1cc(OC)c([C@@H]2C=C(CO)[C@@H]3C[C@H]2C3(C)C)c(OC)c1` [HU-308], for which, in the assay with TAA treated mice [3], the “Inflammation” value is “reduced; also recorded: Decreased” and the “Regeneration” value is given as “Increased”. In addition, the “astrogliosis, direction of change (GFAP staining, hippocampus)” value (“astrogliosis, direction of change” below) with glial cells is on record as “prevented; also recorded: Decrease (p < 0.001)”. In the assay with TAA treated mice [4] (TAA treated mice, blood), the “alanine transaminase (ALT) level” value is on record as “significantly reduced” and the “aspartate aminotransferase (AST) level” value is recorded as “significantly reduced”. Also, in the assay with TAA treated mice [4] (TAA treated mice, co-administration), the “influence of the co-administered agent on the other agent's reduction of ALT and AST levels” value is given as “did not counteract the effect of SR144528”.

For the molecule `Cc1c(C(=O)NN2CCCCC2)nn(-c2ccc(Cl)cc2Cl)c1-c1ccc(Cl)cc1` [SR141716A], in the assay with TAA treated mice [3], the “Inflammation” value is reported as “reduced; also recorded: Decreased” and the “Regeneration” value is recorded as “Increased”. In the assay with glial cells, the “astrogliosis, direction of change” value is on record as “prevented; also recorded: Decrease (p < 0.001)”. In the assay with TAA treated mice [4] (mouse, in vivo), the “alanine transaminase (ALT) level” value is “significantly reduced” and the “aspartate aminotransferase (AST) level” value is given as “significantly reduced”. Further, the AST level result in the assay on TAA treated CB2-KO mice was “effective in reducing its level”. In addition, in the assay with TAA treated CB2-KO mice (2-AG + SR141716A), the “influence of co-administration on the ALT effect of 2-AG” value is listed as “blocked the effect of 2-AG” and the “influence of co-administration on the AST effect of 2-AG” value is “abolished the effect of 2-AG”.

As for `CCCCCc1cc(O)c2c(c1)OC(C)(C)[C@@H]1CCC(C)=C[C@@H]21` [THC, (−)-(6aR,10aR)-6,6,9-trimethyl-3-pentyl-6a,7,8,10a-tetrahydro-6H-benzo[c]chromen-1-ol], the neurological score result in the assay on TAA treated mice [6] was “improved”. Further, in the assay with TAA treated mice [7], the “TAA-induced impaired cognitive function (eight arm maze)” value is recorded as “improved significantly”. Further, the brain dopamine concentration result in the assay with dopamine is “restored levels to normal”. The “hippocampal AMPK phosphorylation (activated AMPK)” value (shortened to “hippocampal AMPK phosphorylation”) in the assay on AMPK [5] (TAA treated mice, 0.01 mg/kg THC) is “inactivating effect”. The “AMPK activation in brain at end of behavioral studies” value in the assay on AMPK [5] (TAA treated mice, 0.1 mg/kg THC daily for 5 days, 0.1 mg/kg) is given as “activates AMPK; also recorded: Amplification of AMPK activation”. The “hippocampal AMPK phosphorylation” value in the assay with AMPK [5] (TAA treated mice, 0.1 mg/kg THC, 0.1 mg/kg) is given as “AMPK activation was achieved; also recorded: augmented AMPK activation”. Further, the “quantity of THC required to activate AMPK” value in the assay with AMPK [5] (experimental hepatic encephalopathy animals) is recorded as 0.1 mg/kg. The “affinity to CB1 versus CB2 receptors” value in assay [8] is on record as “about equal affinity”. For the same molecule, in the assay on AMPK [9] (higher concentrations of THC (up to 10 mg/kg)), the “hippocampal AMPK phosphorylation” value is on record as “dose dependent elevation in activated enzyme”. In addition, the “hippocampal AMPK phosphorylation” value with AMPK [9] (low levels of THC (less than 0.1 mg/kg)) is “reduced the level of activated AMPK”. For the same molecule, the “quantity of THC required to activate AMPK” value with AMPK [9] (healthy animals) was determined as 10 mg/kg. For the same molecule, the activity performance entry with TAA treated mice [10] is listed as “restored”. In addition, in the assay on TAA treated mice [4] (mouse, in vivo), the “alanine transaminase (ALT) level” value is “Neither AICAR nor THC ameliorated these markers”, the ammonia level entry was “no effect”, the “aspartate aminotransferase (AST) level” value is given as “Neither AICAR nor THC ameliorated these markers” and the bilirubin level entry was “Neither AICAR nor THC ameliorated these markers”. For the same molecule, the “gamma-glutamyltransferase (GGT) level” value with TAA treated mice [4] (mouse, in vivo) is recorded as “Neither AICAR nor THC ameliorated these markers”.

`C=C(C)[C@@H]1CCC(C)=C[C@H]1c1c(O)cc(CCCCC)cc1O` [cannabidiol]: the “motor impairment (motor activity)” value in the assay on BDL mice [1] is on record as “restored; also recorded: reversed”. The “cognitive impairment (eight arm maze AUC)” value in the assay with BDL mice [2] is “restored; also recorded: reversed”. In addition, the “oxidative stress in the liver (malondialdehyde)” value in the assay with malondialdehyde is listed as “restored; also recorded: reversed”. Also, the “IL-1β mRNA level in the hippocampus (normalized to L19 mRNA)” value with IL-1β mRNA is “restored; also recorded: reversed”.

As for `COc1cc(CNC(=O)CCCC/C=C/C(C)C)ccc1O` [capsaicin], the neurological score result in the assay on TAA treated mice [6] was “improved; also recorded: significantly improves”. In addition, the “TAA-induced impaired cognitive function (eight arm maze)” value in the assay on TAA treated mice [7] was “improved significantly; also recorded: significantly improves”. In addition, in the assay with TAA treated mice [3], the “Apoptosis (frequency of cells showing apoptosis/necrosis in the liver)” value is on record as “amelioration of TAA-induced apoptosis/necrosis reached statistical significance; also recorded: Decreased”, the “Inflammation” value is reported as “Decreased” and the “Regeneration” value is given as “significantly less hepatic regeneration; also recorded: Decreased”. Further, the “astrogliosis, direction of change” value with glial cells is “prevented; also recorded: reduced astrogliosis; also recorded: minimal; also recorded: Decrease (p < 0.001)”. For the same molecule, in the assay on TAA treated mice [10], the activity performance entry is recorded as “restored; also recorded: significantly improves”. Further, in the assay on TAA treated mice [4] (TAA treated mice, blood), the “alanine transaminase (ALT) level” value is given as “significantly reduces” and the “aspartate aminotransferase (AST) level” value was “significantly reduces”.

Take `Oc1cc2c(cc1O)CN(C(=S)NCCc1ccc(Cl)cc1)CCC2` [capsazepine]: in the assay with TAA treated mice [4] (mouse, in vivo), the “influence of the co-administered agent on the other agent's reduction of ALT and AST levels” value is reported as “abolishment of the effect of capsaicin”.

With SR144528, in the assay with TAA treated mice [3], the “Inflammation” value is reported as “non-significant changes” and the “Regeneration” value is on record as “Increased”. In the assay with TAA treated mice [4] (TAA treated mice, blood), the “alanine transaminase (ALT) level” value was “significantly reduced” and the “aspartate aminotransferase (AST) level” value was “significantly reduced”.
